Source: patent US9926354B2, “Amyloid precursor protein (APP) based Ã#-secretase inhibitor peptides, and methods of use” (UNIVERSITY OF SOUTH FLORIDA, priority 2014, dated 2018)

Experiments:
[1] = test system: CHO cells over-expressing human wild-type APP (CHO/APPwt); test: Aβ and sAPPα production in cultured media of CHO/APPwt cells by ELISA (24 hours); format: cell-based, Chinese hamster; conditions: 20 μg/mL
Protocol: Cell Culture—Chinese hamster ovary (CHO) cells engineered to express wild-type human APP (CHO/APPwt cells) or Swedish mutant human APP (CHO/APPswe cells) were kindly provided by Dr. Stefanie Hahn and Dr. Sascha Weggen (University of Heinrich Heine, Dusseldorf, Germany). As described previously (Obregon et al., 2012), these cells were cultured in Dulbecco's modified Eagle's medium (DMEM) with 10% fetal bovine serum (FBS), 1 mM sodium pyruvate, and 100 units/mL of penicillin and streptomycin.
To confirm the binding of APPsweBBP with BACE1, CHO/APPwt cells were plated in 8-well chambers (5×10^5/well), incubated with TAT-APPsweBBP-biotin or APPsweBBP-biotin at 20 μM for 30 minutes, fixed with 4% paraformaldehyde for 20 minutes, washed and permeabilized with 0.5% Triton X-100. Following application of blocking buffer, these cells were stained with mouse anti-BACE1 and rabbit anti-biotin antibodies overnight at 4° C. for immunocytochemistry analysis. […] The cultured media were collected for Aβ analysis by enzyme-linked immunosorbent assay (ELISA) and sAPPα analysis by ELISA and Western blot (WB). Cell lysates were also prepared for analysis of APP amyloidogenic processing by WB.
ELISA—Mouse brains were homogenized in ice-cold lysis buffer for 30 seconds using a Minilys tissue homogenizer (Bertin Technologies, Montigny-le-Bretonneux, France) set at high speed, allowed to stand for 15 minutes at 4° C., and centrifuged at 15,000 rpm for 30 minutes. Soluble Aβ1-40/42 species and sAPPα were directly detected in cultured cell media or brain homogenates using the Aβ1-40/42 (Invitrogen) and sAPPα ELISA kits (IBL-America, Minneapolis, Minn., USA).
To further examine the ability of the Swedish mutant APP BACE1 binding peptide/Tat fusion peptides to decrease Aβ production, CHO cells overexpressing either human wild-type APP (CHO/APPwt cells) or Swedish mutant APP (hereinafter referred to as “CHO/APPswe cells”) are treated with a variety of APP-based BACE1 inhibitor peptides, as shown in Table 1 and Table 2. Aβ production is determined using ELISA.

5XFAD mice = test: β-amyloid deposits in 5XFAD mouse brains (4G8 immunohistochemistry, image analysis); format: in vivo; conditions: 8 weeks i.p. treatment
Text: Percentage of 4G8 immunoreactive areas in regions of interest (RSC, EC and H regions) was quantified by image analysis for each treatment group (B). Data are represented as mean±SD (n=10, 5 female/5 male).
5XFAD Mice—Transgenic AD mice [5XFAD; B6SJL-Tg(APPSwF1Lon,PSEN1*M146L*L286V) 6799Vas/Mmjax] at 2.5 months of age were obtained from the Jackson Laboratory (Bar Harbor, Me., USA) and housed and maintained in the Animal Facility of College of Medicine at University of South Florida. The mice at 3.5 months of age were treated with TAT-APPsweBBP, TAT peptide (100 nM/kg in 100 μl PBS) or PBS (100 μl) intraperitioneally (i.p.) daily for eight consecutive weeks. The mice were subjected to behavioral testing after 8 week-treatment and euthanized for immunohistochemical, ELISA and WB analysis after completing behavioral tests. All experiments involving mice were in compliance with the U.S. Department of Health and Human Services Guide for the Care and Use of Laboratory Animals and in accordance with the guidelines of the USF Institutional Animal Care and Use Committee.
Immunohistochemistry—Fixed cell cultures and brain sections were stained with indicated antibodies and then treated with donkey anti-mouse IgG conjugated with Alexa Fluor 488 (1:200) and goat anti-rabbit IgG conjugated with Alexa Fluor 594 (1:200; Invitrogen, Carlsbad, Calif., USA). […]

BACE1 = BACE1 (Homo sapiens, UniProt P56817); test: Binding to and cleavage by recombinant BACE1 (WB, IP); conditions: biotin-labeled peptide, recombinant BACE1, 4 hours
Sequence of BACE1 (P56817 46-501): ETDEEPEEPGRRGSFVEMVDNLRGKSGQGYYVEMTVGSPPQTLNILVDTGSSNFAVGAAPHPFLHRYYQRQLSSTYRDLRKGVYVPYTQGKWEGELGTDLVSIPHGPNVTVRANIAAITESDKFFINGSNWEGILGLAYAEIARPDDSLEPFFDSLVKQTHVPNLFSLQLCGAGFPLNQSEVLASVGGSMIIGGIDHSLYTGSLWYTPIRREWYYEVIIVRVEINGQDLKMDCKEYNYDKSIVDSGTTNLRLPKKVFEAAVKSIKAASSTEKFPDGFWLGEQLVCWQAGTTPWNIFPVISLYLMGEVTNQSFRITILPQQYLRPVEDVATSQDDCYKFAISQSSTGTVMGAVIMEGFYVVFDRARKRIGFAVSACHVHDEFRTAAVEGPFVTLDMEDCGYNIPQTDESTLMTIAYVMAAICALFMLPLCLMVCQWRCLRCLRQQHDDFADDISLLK
Protocol: Biotin-labeled TAT-APPsweBBP was incubated with or without recombinant BACE1 protein and examined by western blot (A). Full length TAT-APPsweBBP and β-cleaved TAT-APPsweBBP were clearly detected. Immunoprecipitation (IP) with anti-BACE1 antibody and subsequent WB with anti-biotin antibody (B) and IP with anti-biotin antibody and then WB with anti-BACE1 antibody (C) both reveal that TAT-APPsweBBP, but not TAT peptide, binds to BACE1. To further confirm TAT-APPswcBPP can bind to BACE1, human wild-type APP expressing CHO cells were incubated with biotin-labeled TAT-APPsweBBP or biotin-labeled APPsweBBP at 20 μM for 30 minutes, and then stained with anti-BACE1 or anti-biotin antibodies (D). […] In addition, these treated cells were further analyzed by IP with anti-biotin and subsequent WB with anti-BACE1 antibodies (E), with results showing that TAT-APPsweBBP strongly and specifically binds to BACE1.
In order to confirm that APPsweBBP containing the β-cleavage site could bind to and be consequently proteolyzed by BACE1, 10 μg of biotin-labeled TAT-APPsweBBP was incubated with or without 10 μL of recombinant BACE1 protein (1.0 U/mL) in BACE1 reaction buffer for 4 hours at 37° C. and then subjected to Western blot (WB) analysis as described previously (Rezai-Zadeh et al., 2005; Obregon et al., 2012). […]

YGRKKRRQRRR [TAT, reference compound]
Secreted Aβ40 (ng/mg; mean ± SD) [1]: 11.32 ± 0.45 ng/mg | Secreted Aβ42 (ng/mg; mean ± SD) [1]: 1.07 ± 0.057 ng/mg | Secreted sAPPα (ng/mg; mean ± SD) [1]: 4766.34 ± 198.34 ng/mg | percentage of 4G8 immunoreactive areas (β-amyloid plaques) in RSC, EC and H regions (5XFAD mice): no significant difference | binding to BACE1 protein (IP/WB) (BACE1): not observed
